According to PubChem BioAssay AID248 (DTP/NCI, 2004):
“And” between values parts separate entries of the source, which are not always exact repeats. Equal values may be shown once. Inconclusive results and toxic doses are left out. Cut-off read from the data, not from the text of the source: active = T/C of 150% or more; inactive = T/C below 125%.

System: L1210 leukemia ip in BDF1 mice, survival T/C
Experiment: NCI In Vivo Anticancer Drug Screen. Data for tumor model L1210 Leukemia (intraperitoneal) in B6D2F1 (BDF1) mice
Conditions: endpoint: mean survival time, higher = longer survival
Outline: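 Read-out is survival time, reported as the treated-group measurement over the vehicle-control measurement.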

[1] = dose: 100.0 mg/kg/injection, schedule: Q01DX001 (ip), vehicle: carboxymethylcellulose (CMC)
[2] = dose: 200.0 mg/kg/injection, schedule: Q01DX001 (ip), vehicle: carboxymethylcellulose (CMC)
[3] = dose: 400.0 mg/kg/injection, schedule: Q01DX001 (ip), vehicle: carboxymethylcellulose (CMC)
[4] = dose: 50.0 mg/kg/injection, schedule: Q01DX009 (ip), vehicle: saline
[5] = dose: 100.0 mg/kg/injection, schedule: Q01DX009 (ip), vehicle: saline
[6] = dose: 100.0 mg/kg/injection, schedule: Q04DX002 (ip), vehicle: Klucel (hydroxypropylcellulose) (HPC)
[7] = dose: 200.0 mg/kg/injection, schedule: Q04DX002 (ip), vehicle: Klucel (hydroxypropylcellulose) (HPC)
[8] = dose: 400.0 mg/kg/injection, schedule: Q04DX002 (ip), vehicle: Klucel (hydroxypropylcellulose) (HPC)
[9] = dose: 100.0 mg/kg/injection, schedule: Q01DX009 (ip), vehicle: Klucel (hydroxypropylcellulose) (HPC)
[10] = dose: 200.0 mg/kg/injection, schedule: Q01DX009 (ip), vehicle: Klucel (hydroxypropylcellulose) (HPC)
[11] = dose: 400.0 mg/kg/injection, schedule: Q01DX009 (ip), vehicle: Klucel (hydroxypropylcellulose) (HPC)
[12] = dose: 100.0 mg/kg/injection, schedule: Q04DX003 (ip), vehicle: Klucel (hydroxypropylcellulose) (HPC)
[13] = dose: 200.0 mg/kg/injection, schedule: Q04DX003 (ip), vehicle: Klucel (hydroxypropylcellulose) (HPC)
[14] = dose: 400.0 mg/kg/injection, schedule: Q04DX003 (ip), vehicle: Klucel (hydroxypropylcellulose) (HPC)

Measured: T/C

CN(C)CC1CCCCCC(Br)C1=O (centres undefined)
inactive: dose: 75.0 mg/kg/injection, schedule: Q01DX001 (ip), vehicle: other 98 % of control | dose: 150.0 mg/kg/injection, schedule: Q01DX001 (ip), vehicle: other 95 % of control | dose: 300.0 mg/kg/injection, schedule: Q01DX001 (ip), vehicle: other 107 % of control

O=C(Nc1cccc(C2=NCCN2)c1)c1ccc(OCCCOc2ccc(C(=O)Nc3cccc(C4=NCCN4)c3)cc2)cc1
inactive: dose: 9.0 mg/kg/injection, schedule: Q01DX Z (ip), vehicle: saline 113 % of control | dose: 12.0 mg/kg/injection, schedule: Q01DX Z (ip), vehicle: water 107 % of control | dose: 13.0 mg/kg/injection, schedule: Q01DX Z (ip), vehicle: saline 107 % of control | dose: 20.0 mg/kg/injection, schedule: Q01DX Z (ip), vehicle: saline 112 % of control | dose: 25.0 mg/kg/injection, schedule: Q01DX Z (ip), vehicle: water 111 % of control

CS(=O)(=O)OCCC(=O)NCNC(=O)CCOS(C)(=O)=O
inactive: dose: 10.6 mg/kg/injection, schedule: Q01DX Z (ip), vehicle: carboxymethylcellulose (CMC) 117 % of control and 120 % of control | dose: 16.0 mg/kg/injection, schedule: Q01DX Z (ip), vehicle: carboxymethylcellulose (CMC) 109 % of control | dose: 18.8 mg/kg/injection, schedule: Q01DX Z (ip), vehicle: carboxymethylcellulose (CMC) 124 % of control | dose: 24.0 mg/kg/injection, schedule: Q01DX Z (ip), vehicle: carboxymethylcellulose (CMC) 123 % of control | dose: 28.0 mg/kg/injection, schedule: Q01DX Z (ip), vehicle: carboxymethylcellulose (CMC) 124 % of control | dose: 54.0 mg/kg/injection, schedule: Q01DX Z (ip), vehicle: carboxymethylcellulose (CMC) 122 % of control | dose: 81.0 mg/kg/injection, schedule: Q01DX Z (ip), vehicle: carboxymethylcellulose (CMC) 117 % of control | dose: 84.0 mg/kg/injection, schedule: Q01DX Z (ip), vehicle: carboxymethylcellulose (CMC) 109 % of control | dose: 90.0 mg/kg/injection, schedule: Q01DX Z (ip), vehicle: carboxymethylcellulose (CMC) 121 % of control | dose: 95.0 mg/kg/injection, schedule: Q01DX Z (ip), vehicle: carboxymethylcellulose (CMC) 119 % of control

O=C1CCC(=O)N1C1c2ccccc2Oc2ccccc21
inactive: dose: 100.0 mg/kg/injection, schedule: Q04DX003 (ip), vehicle: saline 95 % of control | dose: 200.0 mg/kg/injection, schedule: Q04DX003 (ip), vehicle: saline 95 % of control | dose: 400.0 mg/kg/injection, schedule: Q04DX003 (ip), vehicle: saline 90 % of control

NNc1ccc2ccccc2n1
inactive: dose: 5.0 mg/kg/injection, schedule: Q01DX009 (ip), vehicle: saline 95 % of control | dose: 5.0 mg/kg/injection, schedule: Q04DX003 (ip), vehicle: saline with Tween-80 113 % of control | dose: 10.0 mg/kg/injection, schedule: Q01DX009 (ip), vehicle: saline 97 % of control | dose: 10.0 mg/kg/injection, schedule: Q04DX003 (ip), vehicle: saline with Tween-80 101 % of control | dose: 20.0 mg/kg/injection, schedule: Q01DX009 (ip), vehicle: saline 97 % of control | dose: 20.0 mg/kg/injection, schedule: Q04DX003 (ip), vehicle: saline with Tween-80 101 % of control

CN1C(c2ccccc2)(c2ccccc2)c2ccccc2S1(=O)=O
inactive: [1] 95 % of control | [2] 95 % of control | [3] 93 % of control

CCOC(=O)CNc1cc(N)ncn1
inactive: [4] 105 % of control | [5] 112 % of control

CC(C)(C)C(=O)CC(O)(C(F)(F)Cl)C(F)(F)Cl
inactive: dose: 100.0 mg/kg/injection, schedule: Q04DX003 (ip), vehicle: saline with Tween-80 107 % of control | dose: 200.0 mg/kg/injection, schedule: Q04DX003 (ip), vehicle: saline with Tween-80 91 % of control

Cc1cccc(NC(=O)Nc2ccccc2)n1
inactive: [6] 98 % of control | [7] 103 % of control | [8] 103 % of control

COC(=O)c1cc(N2CC2)nc(SC)n1
inactive: dose: 6.0 mg/kg/injection, schedule: Q01DX Z (ip), vehicle: methylcellulose (MC) 96 % of control | dose: 12.0 mg/kg/injection, schedule: Q01DX Z (ip), vehicle: methylcellulose (MC) 96 % of control

CCSC(C(OC(C)=O)C(OC(C)=O)C(OC(C)=O)C(COC(C)=O)OC(C)=O)n1cc(C)c(=O)[nH]c1=O (centres undefined)
inactive: dose: 50.0 mg/kg/injection, schedule: Q01DX001 (ip), vehicle: carboxymethylcellulose (CMC) 100 % of control and 97 % of control | [1] 97 % of control and 94 % of control | [2] 100 % of control | [3] 100 % of control and 103 % of control

O=S1(=O)CCC(N(N=C2CCCCC2)c2ccccc2)C1 (centres undefined)
inactive: dose: 50.0 mg/kg/injection, schedule: Q01DX009 (ip), vehicle: Klucel (hydroxypropylcellulose) (HPC) 95 % of control | [9] 98 % of control | [10] 106 % of control | [11] 95 % of control

c1ccc2cc3c(cc2c1)OCO3
inactive: [6] 110 % of control | [7] 107 % of control | [8] 98 % of control

CC(=O)COc1ccccc1
inactive: [9] 108 % of control | [12] 100 % of control | [10] 110 % of control | [13] 97 % of control | [11] 108 % of control | [14] 95 % of control

Cc1c(-c2ccccc2)ccnc1C#N
inactive: dose: 50.0 mg/kg/injection, schedule: Q01DX009 (ip), vehicle: saline with Tween-80 97 % of control | dose: 100.0 mg/kg/injection, schedule: Q01DX009 (ip), vehicle: saline with Tween-80 102 % of control | dose: 200.0 mg/kg/injection, schedule: Q01DX009 (ip), vehicle: saline with Tween-80 97 % of control

C#CC(=O)c1ccccc1
inactive: dose: 4.7 mg/kg/injection, schedule: Q01DX009 (ip), vehicle: saline with Tween-80 94 % of control | dose: 18.8 mg/kg/injection, schedule: Q01DX001 (ip), vehicle: saline 98 % of control | dose: 37.5 mg/kg/injection, schedule: Q01DX001 (ip), vehicle: saline 104 % of control

CCCCN=C1NC(N)=NC(C)(C)N1
inactive: dose: 100.0 mg/kg/injection, schedule: Q01DX001 (ip), vehicle: Klucel (hydroxypropylcellulose) (HPC) 98 % of control | dose: 200.0 mg/kg/injection, schedule: Q01DX001 (ip), vehicle: Klucel (hydroxypropylcellulose) (HPC) 102 % of control

O=C(Nc1ccccc1F)Oc1cccc(C(F)(F)F)c1
inactive: dose: 25.0 mg/kg/injection, schedule: Q01DX009 (ip), vehicle: saline 103 % of control | [4] 110 % of control | [5] 103 % of control

CC1CCN(c2ccc([N+](=O)[O-])cc2)CC1
inactive: [9] 100 % of control | [12] 97 % of control | [10] 99 % of control | [13] 95 % of control | [11] 100 % of control | [14] 101 % of control

Nc1ncnc2nc[nH]c12.[Tl]
inactive: dose: 3.12 mg/kg/injection, schedule: Q01DX009 (ip), vehicle: water 95 % of control | dose: 3.12 mg/kg/injection, schedule: Q04DX003 (ip), vehicle: water 103 % of control | dose: 6.25 mg/kg/injection, schedule: Q01DX009 (ip), vehicle: water 95 % of control | dose: 6.25 mg/kg/injection, schedule: Q04DX003 (ip), vehicle: water 108 % of control | dose: 12.5 mg/kg/injection, schedule: Q04DX003 (ip), vehicle: water 105 % of control

Nc1nc2c([nH]c(=O)n2C2OC(CO)C(O)C2O)c(=O)n1N (centres undefined)
inactive: dose: 100.0 mg/kg/injection, schedule: Q01DX001 (ip), vehicle: saline 102 % of control | dose: 200.0 mg/kg/injection, schedule: Q01DX001 (ip), vehicle: saline 101 % of control | dose: 400.0 mg/kg/injection, schedule: Q01DX001 (ip), vehicle: saline 96 % of control

C/C(=C\c1ccc2ccccc2c1)[N+](=O)[O-]
inactive: dose: 75.0 mg/kg/injection, schedule: Q01DX001 (ip), vehicle: saline 108 % of control | dose: 150.0 mg/kg/injection, schedule: Q01DX001 (ip), vehicle: saline 100 % of control | dose: 300.0 mg/kg/injection, schedule: Q01DX001 (ip), vehicle: saline 105 % of control
